Results published in PubChem BioAssay AID2060609 (Molecular Pharmacology Branch, DTP, NCI, 2025).
Blank lines part the entries; values can stand above or below the compound they belong to.

Tested on: 855422-203-R-J1-PDC complex spheroids, viability
Test: Anticancer human tumor 855422-203-R-J1-PDC patient-derived bladder carcinoma cell line growth inhibition [CLK]
Settings: for IC50: curve of first compound; for viability, T/C: stronger effect = lower value
Method in brief: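 Patient-derived tumor cells grown as complex spheroids with HUVEC endothelial cells and mesenchymal stem cells, treated with drug combinations. Concentrations descend in half-log steps from near clinical Cmax, or from 10 microM if Cmax unknown.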

[1] = second compound 0.0316 µM, first compound 0.0316 µM
[2] = second compound 0.0316 µM, first compound 0.1 µM
[3] = second compound 0.0316 µM, first compound 0.316 µM
[4] = second compound 0.0316 µM, first compound 1 µM
[5] = second compound 0.1 µM, first compound 0.0316 µM
[6] = second compound 0.1 µM, first compound 0.1 µM
[7] = second compound 0.1 µM, first compound 0.316 µM
[8] = second compound 0.1 µM, first compound 1 µM
[9] = second compound 0.316 µM, first compound 0.0316 µM
[10] = second compound 0.316 µM, first compound 0.1 µM
[11] = second compound 0.316 µM, first compound 0.316 µM
[12] = second compound 0.316 µM, first compound 1 µM
[13] = second compound 1 µM, first compound 0.0316 µM
[14] = second compound 1 µM, first compound 0.1 µM
[15] = second compound 1 µM, first compound 0.316 µM
[16] = second compound 1 µM, first compound 1 µM
[17] = second compound 3.16 µM, first compound 0.0316 µM
[18] = second compound 3.16 µM, first compound 0.1 µM
[19] = second compound 3.16 µM, first compound 0.316 µM
[20] = second compound 3.16 µM, first compound 1 µM
[21] = second compound 10 µM, first compound 0.0316 µM
[22] = second compound 10 µM, first compound 0.1 µM
[23] = second compound 10 µM, first compound 0.316 µM
[24] = second compound 10 µM, first compound 1 µM
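Also: spheroids exposed to drugs for seven days before readout.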
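For viability, T/C in this document: 100% = DMSO vehicle control wells.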

IC50 (second compound 0.0316 µM): < 31.6 nM
IC50 (second compound 0.1 µM): < 31.6 nM
IC50 (second compound 0.316 µM): < 31.6 nM
IC50 (second compound 1 µM): < 31.6 nM
IC50 (second compound 3.16 µM): < 31.6 nM
IC50 (second compound 10 µM): < 31.6 nM
SMILES: CC(=O)O[C@H]1C(=O)[C@@]2(C)[C@H]([C@H](OC(=O)c3ccccc3)[C@]3(O)C[C@H](OC(=O)[C@H](O)[C@@H](NC(=O)c4ccccc4)c4ccccc4)C(C)=C1C3(C)C)[C@]1(OC(C)=O)CO[C@@H]1C[C@@H]2O + CNC(=O)c1ccc(Nc2nc(OC3CCCC3)c3c(-c4ccc5nc(C)oc5c4)c[nH]c3n2)c(OC)c1
viability, T/C [1]: 8.98%
viability, T/C [2]: 6.61%
viability, T/C [3]: 7.27%
viability, T/C [4]: 7.58%
viability, T/C (second compound 0.0316 µM, first compound 3.16 µM): 8.71%
viability, T/C (second compound 0.0316 µM, first compound 10 µM): 11.3%
viability, T/C [5]: 16.5%
viability, T/C [6]: 11.2%
viability, T/C [7]: 13.8%
viability, T/C [8]: 11.9%
viability, T/C (second compound 0.1 µM, first compound 3.16 µM): 15%
viability, T/C (second compound 0.1 µM, first compound 10 µM): 25.5%
viability, T/C [9]: 30.5%
viability, T/C [10]: 28.8%
viability, T/C [11]: 29.2%
viability, T/C [12]: 31.9%
viability, T/C (second compound 0.316 µM, first compound 3.16 µM): 34.4%
viability, T/C (second compound 0.316 µM, first compound 10 µM): 31.5%
viability, T/C [13]: 32%
viability, T/C [14]: 25.3%
viability, T/C [15]: 28.1%
viability, T/C [16]: 35.5%
viability, T/C (second compound 1 µM, first compound 3.16 µM): 36.5%
viability, T/C (second compound 1 µM, first compound 10 µM): 27%
viability, T/C [17]: 28.6%
viability, T/C [18]: 28.3%
viability, T/C [19]: 21.7%
viability, T/C [20]: 31.7%
viability, T/C (second compound 3.16 µM, first compound 3.16 µM): 31.8%
viability, T/C (second compound 3.16 µM, first compound 10 µM): 24.2%
viability, T/C [21]: 23.4%
viability, T/C [22]: 33.6%
viability, T/C [23]: 25.5%
viability, T/C [24]: 24.9%
viability, T/C (second compound 10 µM, first compound 3.16 µM): 31.4%
viability, T/C (second compound 10 µM, first compound 10 µM): 26.3%

IC50 (second compound 0.0316 µM): 3.92 nM
IC50 (second compound 0.1 µM): < 3.16 nM
IC50 (second compound 0.316 µM): < 3.16 nM
IC50 (second compound 1 µM): < 3.16 nM
IC50 (second compound 3.16 µM): < 3.16 nM
IC50 (second compound 10 µM): < 3.16 nM
SMILES: CCc1c2c(nc3ccc(O)cc13)-c1cc3c(c(=O)n1C2)COC(=O)[C@]3(O)CC + CNC(=O)c1ccc(Nc2nc(OC3CCCC3)c3c(-c4ccc5nc(C)oc5c4)c[nH]c3n2)c(OC)c1
viability, T/C (second compound 0.0316 µM, first compound 0.00316 µM): 58.1%
viability, T/C (second compound 0.0316 µM, first compound 0.01 µM): 14.6%
viability, T/C [1]: 10.3%
viability, T/C [2]: 4.46%
viability, T/C [3]: 2.37%
viability, T/C [4]: 2.42%
viability, T/C (second compound 0.1 µM, first compound 0.00316 µM): 31.4%
viability, T/C (second compound 0.1 µM, first compound 0.01 µM): 13.2%
viability, T/C [5]: 8.17%
viability, T/C [6]: 3.32%
viability, T/C [7]: 2.65%
viability, T/C [8]: 1.46%
viability, T/C (second compound 0.316 µM, first compound 0.00316 µM): 18.2%
viability, T/C (second compound 0.316 µM, first compound 0.01 µM): 11.9%
viability, T/C [9]: 6.3%
viability, T/C [10]: 3.66%
viability, T/C [11]: 2.03%
viability, T/C [12]: 3.09%
viability, T/C (second compound 1 µM, first compound 0.00316 µM): 17.7%
viability, T/C (second compound 1 µM, first compound 0.01 µM): 10.2%
viability, T/C [13]: 7.3%
viability, T/C [14]: 4.22%
viability, T/C [15]: 2.1%
viability, T/C [16]: 1.8%
viability, T/C (second compound 3.16 µM, first compound 0.00316 µM): 17.8%
viability, T/C (second compound 3.16 µM, first compound 0.01 µM): 12.4%
viability, T/C [17]: 7.84%
viability, T/C [18]: 3.73%
viability, T/C [19]: 2.41%
viability, T/C [20]: 1.27%
viability, T/C (second compound 10 µM, first compound 0.00316 µM): 13.8%
viability, T/C (second compound 10 µM, first compound 0.01 µM): 11.1%
viability, T/C [21]: 7.08%
viability, T/C [22]: 5.03%
viability, T/C [23]: 3.52%
viability, T/C [24]: 1.51%
